Laboratory results from patent US20240228458A1, “PYRIMIDINE DERIVATIVE HAVING PROTEIN KINASE INHIBITORY ACTIVITY, AND THERAPEUTIC PHARMACEUTICAL COMPOSITION COMPRISING SAME” (THERAPEX CO., LTD., priority 2021, published 2024).

Assays:
Type in all cases: cell-based
[1] = tested on: Ba/F3 cells expressing EGFR-wt; assay: Growth inhibition (GI50) of Ba/F3 cells expressing EGFR-wt, Celltiter glo
Outline: (§1)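 We seed Ba/F3 transfectants at 100,000 cells/ml, dose them with ten 4-fold compound dilutions (2 mM top stock, 0.5% DMSO) after 4 h, and culture for 72 h at 37 °C. CellTiter-Glo then reports viable cell number, from which the GI50 is fitted.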

[2] = tested on: Ba/F3 cells expressing del19/T790M/C797S (EGFR-DTC); assay: Growth inhibition (GI50) of Ba/F3 cells expressing del19/T790M/C797S (EGFR-DTC), Celltiter glo
Outline: as §1

[3] = tested on: Ba/F3 cells expressing L858R/T790M/C797S (EGFR-LTC); assay: Growth inhibition (GI50) of Ba/F3 cells expressing L858R/T790M/C797S (EGFR-LTC), Celltiter glo
Outline: as §1

[4] = tested on: Ba/F3 cells expressing del19/T790M (EGFR-DT); assay: Growth inhibition (GI50) of Ba/F3 cells expressing del19/T790M (EGFR-DT), Celltiter glo
Outline: as §1

[5] = tested on: Ba/F3 cells expressing L858R/T790M (EGFR-LT); assay: Growth inhibition (GI50) of Ba/F3 cells expressing L858R/T790M (EGFR-LT), Celltiter glo
Outline: as §1

[6] = tested on: parental Ba/F3 cell line; assay: Growth inhibition (GI50) of the parental Ba/F3 cell line (not introduced with EGFR variants), Celltiter glo; settings: parental Ba/F3 cells
Outline: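 Parental Ba/F3 cells (100,000 cells/ml) were treated with 10-point, 4-fold compound dilutions (0.5% DMSO; top stock 2 mM) for 72 h at 37 °C, 5% CO2. Viability was read by CellTiter-Glo; GI50 is the concentration (μM) giving 50% growth inhibition.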

| SMILES | GI50 ([1]; Mus musculus, BaF3, 72 h) | GI50 ([2]; Mus musculus, BaF3, 72 h) | GI50 ([3]; Mus musculus, BaF3, 72 h) | GI50 ([4]; Mus musculus, BaF3, 72 h) | GI50 ([5]; Mus musculus, BaF3, 72 h) | GI50 ([1]; 72 h) | GI50 ([2]; 72 h) | GI50 ([3]; 72 h) | GI50 ([4]; 72 h) | GI50 ([5]; 72 h) | GI50 ([6]; Mus musculus, BaF3, 72 h) | GI50 ([6]; 72 h) |
| --- | --- | --- | --- | --- | --- | --- | --- | --- | --- | --- | --- | --- |
| COc1cc(N2CCC(N3CCN(C)CC3)CC2)c(Cl)cc1Nc1ncc(Cl)c(Nc2ccc3c(c2)N(C)CC3)n1 [Example 273] | 25 to 100 nM | 500 to 2000 nM | 100 to 500 nM | 500 to 2000 nM | 100 to 500 nM | – | – | – | – | – | 500 to 2000 nM | – |
| Cc1cc(Nc2ncc(Cl)c(Nc3ccc4c(c3)N(C)CC4)n2)c(Cl)cc1N1CCC(N2CCN(C)CC2)CC1 [Example 274] | 25 to 100 nM | 2000 to 10000 nM | 500 to 2000 nM | 500 to 2000 nM | 500 to 2000 nM | – | – | – | – | – | 500 to 2000 nM | – |
| COc1cc(N2CCC(N3CCCN(C)CC3)CC2)c(C)cc1Nc1ncc(Cl)c(Nc2ccc3c(c2)N(C)CC3)n1 [Example 275] | 100 to 500 nM | 500 to 2000 nM | 500 to 2000 nM | 100 to 500 nM | 500 to 2000 nM | – | – | – | – | – | 500 to 2000 nM | – |
| COc1cc(N2CCC(N3CCN(C)CC3)CC2)c(C)cc1Nc1ncc(Cl)c(Nc2cc3c(cc2NS(C)(=O)=O)CCN3C)n1 [Example 276, N-(6-((5-chloro-2-((2-methoxy-5-methyl-4-(4-(4-methylpiperazin-1-yl)piperidin-1-yl)phenyl)amino)pyrimidin-4-yl)amino)-1-methylindolin-5-yl)methanesulfonamide] | 500 to 2000 nM | 100 to 500 nM | 100 to 500 nM | 25 to 100 nM | 100 to 500 nM | – | – | – | – | – | 2000 to 10000 nM | – |
| Cc1cc(Nc2ncc(Cl)c(Nc3ccc4c(c3)NCC4)n2)c(Cl)cc1N1CCC(N2CCN(C)CC2)CC1 [Example 277] | > 10000 nM | > 10000 nM | > 10000 nM | 2000 to 10000 nM | 2000 to 10000 nM | – | – | – | – | – | 2000 to 10000 nM | – |
| COc1cc(N2CCC(N3CCN(C)CC3)CC2)c(Cl)cc1Nc1ncc(Cl)c(Nc2ccc3c(c2)NCC3)n1 [Example 278] | > 10000 nM | 2000 to 10000 nM | > 10000 nM | > 10000 nM | 2000 to 10000 nM | – | – | – | – | – | 2000 to 10000 nM | – |
| COc1cc(N2CCC(N3CCN(C)CC3)CC2)ccc1Nc1ncc(Cl)c(Nc2ccc3c(c2)NCC3)n1 [Example 279] | 2000 to 10000 nM | 2000 to 10000 nM | 2000 to 10000 nM | 100 to 500 nM | 500 to 2000 nM | – | – | – | – | – | 2000 to 10000 nM | – |

Further lines, with some results ahead:

| GI50 ([1]; Mus musculus, BaF3, 72 h) | GI50 ([2]; Mus musculus, BaF3, 72 h) | GI50 ([3]; Mus musculus, BaF3, 72 h) | GI50 ([4]; Mus musculus, BaF3, 72 h) | GI50 ([5]; Mus musculus, BaF3, 72 h) | GI50 ([1]; 72 h) | GI50 ([2]; 72 h) | GI50 ([3]; 72 h) | GI50 ([4]; 72 h) | GI50 ([5]; 72 h) | SMILES | GI50 ([6]; Mus musculus, BaF3, 72 h) | GI50 ([6]; 72 h) |
| --- | --- | --- | --- | --- | --- | --- | --- | --- | --- | --- | --- | --- |
| 25 to 100 nM | 100 to 500 nM | 1 to 25 nM | 1 to 25 nM | 1 to 25 nM | – | – | – | – | – | COc1cc(N2CCC(N3CCCC(N(C)C)C3)CC2)c(Br)cc1Nc1ncc(Cl)c(Nc2cc3c(cc2NS(C)(=O)=O)CCO3)n1 (stereo not drawn) [Example 280, N-(6-((2-((5-bromo-4-(3-(dimethylamino)-[1,4′-bipiperidin]-1′-yl)-2-methoxyphenyl)amino)-5-chloropyrimidin-4-yl)amino)-2,3-dihydrobenzofuran-5-yl)methanesulfonamide] | 2000 to 10000 nM | – |
| 100 to 500 nM | 25 to 100 nM | 1 to 25 nM | 1 to 25 nM | 1 to 25 nM | – | – | – | – | – | COc1cc(N2CCC(N3CCCC(N(C)C)C3)CC2)c(Br)cc1Nc1ncc(Br)c(Nc2cc3c(cc2NS(C)(=O)=O)CCO3)n1 (stereo not drawn) [Example 281, N-(6-((5-bromo-2-((5-bromo-4-(3-(dimethylamino)-[1,4′-bipiperidin]-1′-yl)-2-methoxyphenyl)amino)pyrimidin-4-yl)amino)-2,3-dihydrobenzofuran-5-yl)methanesulfonamide] | 100 to 500 nM | – |
| 100 to 500 nM | 100 to 500 nM | 25 to 100 nM | 1 to 25 nM | 1 to 25 nM | – | – | – | – | – | COc1cc(N2CCC(N3CCCN(C)CC3)CC2)c(Br)cc1Nc1ncc(Cl)c(Nc2cc3c(cc2NS(C)(=O)=O)CCO3)n1 [Example 282, N-(6-((2-((5-bromo-2-methoxy-4-(4-(4-methyl-1,4-diazepan-1-yl)piperidin-1-yl)phenyl)amino)-5-chloropyrimidin-4-yl)amino)-2,3-dihydrobenzofuran-5-yl)methanesulfonamide] | 2000 to 10000 nM | – |
| 100 to 500 nM | 100 to 500 nM | 25 to 100 nM | 1 to 25 nM | 1 to 25 nM | – | – | – | – | – | COc1cc(N2CCC(N3CCC(N(C)C)C3)CC2)c(Br)cc1Nc1ncc(Cl)c(Nc2cc3c(cc2NS(C)(=O)=O)CCO3)n1 (stereo not drawn) [Example 283, N-(6-((2-((5-bromo-4-(4-(3-(dimethylamino)pyrrolidin-1-yl)piperidin-1-yl)-2-methoxyphenyl)amino)-5-chloropyrimidin-4-yl)amino)-2,3-dihydrobenzofuran-5-yl)methanesulfonamide] | 2000 to 10000 nM | – |
| – | – | – | – | – | 500 to 2000 nM | 25 to 100 nM | 25 to 100 nM | 100 to 500 nM | 100 to 500 nM | COc1cc(N2CCC(N3CCN(C)CC3)CC2)c(C)cc1Nc1ncc(Br)c(Nc2ccc3nccnc3c2P(C)(C)=O)n1 [TQB-3804] | – | 500 to 2000 nM |
